Patent US5075440A, “Novel pyrido[2,3-f](1,4)thiazepines and pyrido[3,2-b](1,5)benzothiazepines” (Ortho Pharmaceutical Corporation, priority 1990, dated 1991)

Legend:
aorta tissue = assay: Inhibition of calcium dependent smooth muscle contraction, aorta (P#176 Aorta); parameters: species or system dog; conditions: Canis lupus familiaris, 50 mM KCl contraction, read-out: P#176 Aorta % INHB/μM
Experimental: (§1) The test for inhibition of calcium dependent smooth muscle contraction is determined according to the following procedure:
(§2) The trachea and the aorta from dogs sacrificed by excess KCl injection are stored overnight at 4° C. in oxygenated Krebs-Henseleit buffer. Tracheal rings, one cartilage segment wide (5-10 mm), are cut starting from the bronchial end. Rings of aorta tissue of the same width are also prepared. After cutting the cartilage, the trachealis muscle tissue and the aorta tissue are suspended in oxygenated Krebs-Henseleit buffer at 37° C. in a 25 ml tissue bath. After a 60-minute equilibration period, the tissues are challenged with 10 μM carbachol. After 5 minutes, the tissues are rinsed and allowed to rest 50 minutes. The tissues are then challenged with 50 mM KCl and, after 30 minutes, the contractions are quantitated. The tissues are then rinsed and reequilibrated for 50 minutes. Test compounds are then added for 10 minutes, and the tissue is rechallenged with 50 mM KCl. After 30 minutes, the contraction is recorded and used to determine the % inhibition of control.
(§3) The percent inhibition of smooth muscle contraction is calculated from response data before and after drug treatment. [formula]

[1] = biological target: T1, Calcium Channel (3H-nitrendipine binding, heart membranes) (Oryctolagus cuniculus, UniProt P15381); assay: Inhibition of 3H-nitrendipine binding (P#166 Nit. Binding); parameters: species or system rabbit; conditions: for IC50: rabbit heart membranes, 3H-nitrendipine 0.05-0.50 nM; for inhibition at 1 µM: @ 1.0 μM test compound
T1 construct: the heart is immediately removed, cleaned and chopped into small pieces; The tissue is homogenized; from tissue; host or cells: heart membranes of female New Zealand white rabbits (42,000×g pellet)
T1 sequence (P15381 whole entry, other chains not shown): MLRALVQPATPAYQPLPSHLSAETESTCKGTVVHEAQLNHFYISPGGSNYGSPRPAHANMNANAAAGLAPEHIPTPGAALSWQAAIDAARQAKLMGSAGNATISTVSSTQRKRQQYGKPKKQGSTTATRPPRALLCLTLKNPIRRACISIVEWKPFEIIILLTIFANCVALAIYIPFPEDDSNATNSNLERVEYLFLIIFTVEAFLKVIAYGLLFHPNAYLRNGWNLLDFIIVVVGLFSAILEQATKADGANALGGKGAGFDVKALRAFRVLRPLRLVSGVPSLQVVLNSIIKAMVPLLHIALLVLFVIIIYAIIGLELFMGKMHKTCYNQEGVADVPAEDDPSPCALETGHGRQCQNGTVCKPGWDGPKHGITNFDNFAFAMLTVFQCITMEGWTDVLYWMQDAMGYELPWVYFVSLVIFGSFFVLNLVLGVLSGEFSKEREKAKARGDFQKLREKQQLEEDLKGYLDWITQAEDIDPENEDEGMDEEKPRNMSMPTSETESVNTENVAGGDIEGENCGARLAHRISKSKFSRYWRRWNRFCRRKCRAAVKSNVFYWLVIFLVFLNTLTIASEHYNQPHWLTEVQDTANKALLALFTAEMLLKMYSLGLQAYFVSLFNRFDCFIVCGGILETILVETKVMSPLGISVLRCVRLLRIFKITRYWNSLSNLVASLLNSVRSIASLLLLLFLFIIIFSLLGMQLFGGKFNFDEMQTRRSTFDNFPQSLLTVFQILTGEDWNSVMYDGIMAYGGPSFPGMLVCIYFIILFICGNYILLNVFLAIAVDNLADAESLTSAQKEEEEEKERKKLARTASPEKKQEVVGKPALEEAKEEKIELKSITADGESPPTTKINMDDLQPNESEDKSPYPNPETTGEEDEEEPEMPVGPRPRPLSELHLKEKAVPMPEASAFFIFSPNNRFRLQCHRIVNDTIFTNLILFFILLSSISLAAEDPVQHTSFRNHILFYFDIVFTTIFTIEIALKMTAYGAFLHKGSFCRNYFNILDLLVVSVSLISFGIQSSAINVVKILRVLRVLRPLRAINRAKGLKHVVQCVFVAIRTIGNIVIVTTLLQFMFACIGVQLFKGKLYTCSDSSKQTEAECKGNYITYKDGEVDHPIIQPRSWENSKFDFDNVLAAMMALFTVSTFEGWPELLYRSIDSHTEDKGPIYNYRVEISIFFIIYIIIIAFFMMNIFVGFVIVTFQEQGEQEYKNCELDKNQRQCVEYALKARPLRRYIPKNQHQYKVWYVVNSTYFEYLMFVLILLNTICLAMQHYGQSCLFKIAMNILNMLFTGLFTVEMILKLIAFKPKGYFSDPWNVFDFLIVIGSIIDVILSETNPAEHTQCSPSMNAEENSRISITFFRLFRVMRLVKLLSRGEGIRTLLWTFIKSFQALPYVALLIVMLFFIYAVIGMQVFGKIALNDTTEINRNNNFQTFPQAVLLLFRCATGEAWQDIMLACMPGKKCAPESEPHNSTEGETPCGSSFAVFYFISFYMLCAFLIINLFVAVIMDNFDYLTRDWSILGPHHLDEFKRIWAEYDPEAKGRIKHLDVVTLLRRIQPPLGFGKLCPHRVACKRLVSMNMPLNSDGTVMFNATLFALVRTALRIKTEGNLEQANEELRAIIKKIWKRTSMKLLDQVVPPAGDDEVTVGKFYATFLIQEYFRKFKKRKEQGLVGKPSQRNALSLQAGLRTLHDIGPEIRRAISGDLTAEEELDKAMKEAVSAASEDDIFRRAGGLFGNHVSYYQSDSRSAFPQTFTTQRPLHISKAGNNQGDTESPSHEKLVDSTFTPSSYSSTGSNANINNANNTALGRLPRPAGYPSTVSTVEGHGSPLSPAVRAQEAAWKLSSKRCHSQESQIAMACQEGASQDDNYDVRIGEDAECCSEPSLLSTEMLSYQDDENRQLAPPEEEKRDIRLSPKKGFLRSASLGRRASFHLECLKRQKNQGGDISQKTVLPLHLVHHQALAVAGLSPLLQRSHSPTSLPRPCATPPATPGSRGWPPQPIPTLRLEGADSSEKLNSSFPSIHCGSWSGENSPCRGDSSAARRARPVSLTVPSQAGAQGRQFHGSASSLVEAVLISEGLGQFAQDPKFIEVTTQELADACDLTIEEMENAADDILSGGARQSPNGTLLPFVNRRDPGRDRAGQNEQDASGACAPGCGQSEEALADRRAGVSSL
T1 sequence (P13806 27-960 partner limits assumed, other chains not shown): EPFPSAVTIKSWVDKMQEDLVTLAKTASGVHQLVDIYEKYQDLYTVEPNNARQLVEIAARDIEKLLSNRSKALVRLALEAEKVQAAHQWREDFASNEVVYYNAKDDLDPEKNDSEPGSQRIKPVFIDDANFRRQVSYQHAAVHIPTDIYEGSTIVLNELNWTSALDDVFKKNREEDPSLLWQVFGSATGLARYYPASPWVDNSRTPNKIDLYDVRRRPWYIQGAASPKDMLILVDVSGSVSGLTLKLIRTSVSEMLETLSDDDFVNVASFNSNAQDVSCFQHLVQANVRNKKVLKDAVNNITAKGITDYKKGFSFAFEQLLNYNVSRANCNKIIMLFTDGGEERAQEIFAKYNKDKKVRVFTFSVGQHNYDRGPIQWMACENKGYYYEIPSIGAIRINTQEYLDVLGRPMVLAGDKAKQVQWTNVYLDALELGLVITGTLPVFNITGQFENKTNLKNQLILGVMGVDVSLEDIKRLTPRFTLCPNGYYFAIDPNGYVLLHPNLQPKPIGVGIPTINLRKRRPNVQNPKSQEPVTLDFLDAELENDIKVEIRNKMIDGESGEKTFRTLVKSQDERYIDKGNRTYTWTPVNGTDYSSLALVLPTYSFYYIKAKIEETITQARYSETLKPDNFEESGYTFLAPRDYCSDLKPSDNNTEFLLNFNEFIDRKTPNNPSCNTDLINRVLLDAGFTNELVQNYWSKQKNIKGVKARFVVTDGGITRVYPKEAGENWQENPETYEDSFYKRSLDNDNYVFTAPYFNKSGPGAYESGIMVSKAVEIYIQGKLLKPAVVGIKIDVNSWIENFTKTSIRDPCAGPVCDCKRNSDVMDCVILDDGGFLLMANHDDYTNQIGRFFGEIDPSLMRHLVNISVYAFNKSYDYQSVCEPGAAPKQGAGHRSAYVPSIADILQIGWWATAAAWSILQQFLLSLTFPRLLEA
T1 sequence (P13806 961-1106 partner limits assumed, other chains not shown): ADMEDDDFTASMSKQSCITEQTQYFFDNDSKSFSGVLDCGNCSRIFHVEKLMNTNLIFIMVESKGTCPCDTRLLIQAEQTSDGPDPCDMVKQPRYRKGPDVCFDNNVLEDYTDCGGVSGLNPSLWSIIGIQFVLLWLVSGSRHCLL
Experimental: The assay for inhibition of nitrendipine binding is performed using the following procedure:
Female, New Zealand white rabbits (1-2 kg) are sacrificed by cervical dislocation, and the heart is immediately removed, cleaned and chopped into small pieces. The tissue is homogenized in 5×volume of 0.05M Hepes buffer, pH 7.4. The homogenate is centrifuged at 4000×g for 10 minutes, and the supernatant is recentrifuged at 42,000×g for 90 minutes. The resulting membrane pellet is resuspended (0.7 ml/g weight) in 0.05M Hepes, pH 7.4 and stored at […] until used. Each tube of the binding assay contains ^3 H-nitrendipine (0.05-0.50 nM), buffer, membranes (0.10 ml), and test compound in a total volume of 1.0 ml. After 90 minutes at 4° C., the bound nitrendipine is separated from the unbound by filtration on Whatman GF/C filters. After rinsing, the filters are dried and counted in a liquid scintillation counter.
Non-specific binding of ^3 H-nitrendipine (that amount bound in the presence of excess unlabelled nitrendipine) is subtracted from the total bound to obtain specifically bound radiolabeled nitrendipine. The amount of specifically bound nitrendipine in the presence of a test compound is compared to that amount bound in the absence of a compound. A percent displacement (or inhibition) can then be obtained.

trachealis muscle tissue = assay: Inhibition of calcium dependent smooth muscle contraction, trachea (P#176 Trach); parameters: species or system dog; conditions: Canis lupus familiaris, 50 mM KCl contraction, read-out: P#176 Trach % INHB/μM
Experimental: as §1, §2, §3

Q: What does the source list for `CCOC(=O)C1=C(C)NC2=C(C1c1cccc(Cl)c1Cl)S(=O)(=O)CCN(C)C2` (stereo not shown) [2,3-dichloro / Me / ethyl, Ethyl 9-(2,3-dichlorophenyl)-4,7-dimethy-1,1-dioxo-2,3,4,5,6,9-hexahydropyrido[2,3-f][1,4]thiazepine-8-carboxylate]?
A: inhibition at 0.01 µM (aorta tissue): 67%; inhibition at 0.1 µM (aorta tissue): 96%; inhibition at 1 µM (aorta tissue): 97%; IC50 [1]: 0.12 µM; inhibition at 0.01 µM (trachealis muscle tissue): 55%; inhibition at 0.1 µM (trachealis muscle tissue): 80%; inhibition at 2 µM (trachealis muscle tissue): 98%

Q: Which inhibition at 0.01 µM (aorta tissue) does the source give for `CCCN1CCS(=O)(=O)C2=C(C1)NC(C)=C(C(=O)OCC)C2c1cccc(Cl)c1Cl` (stereo not shown) [2,3-dichloro / Pr / ethyl] here?
A: Its inhibition at 0.01 µM is 53%.

Q: What about the inhibition at 0.1 µM (aorta tissue) of the same compound?
A: Its inhibition at 0.1 µM is 88%.

Q: What about the inhibition at 1 µM (aorta tissue) of the same compound?
A: Its inhibition at 1 µM is 100%.

Q: And the IC50 [1]?
A: The IC50 was 0.145 µM.

Q: And the inhibition at 0.03 µM (trachealis muscle tissue)?
A: Its inhibition at 0.03 µM is 30%.

Q: What about the inhibition at 0.1 µM (trachealis muscle tissue) of the same compound?
A: Its inhibition at 0.1 µM is 44%.

Q: And the inhibition at 0.3 µM (trachealis muscle tissue)?
A: The inhibition at 0.3 µM was 53%.

Q: And the inhibition at 2 µM (trachealis muscle tissue)?
A: Its inhibition at 2 µM is 68%.

Q: With `CCOC(=O)C1=C(C)NC2=C(C1c1cccc(Cl)c1Cl)S(=O)(=O)CCN(C(C)C)C2` (stereo not shown) [2,3-dichloro / iPr / ethyl] as the compound, how does the inhibition at 0.01 µM (aorta tissue) read?
A: Its inhibition at 0.01 µM is 38%.

Q: And the inhibition at 0.1 µM (aorta tissue)?
A: The inhibition at 0.1 µM was 83%.

Q: And the inhibition at 1 µM (aorta tissue)?
A: The inhibition at 1 µM was 95%.

Q: And the IC50 [1]?
A: Its IC50 is 0.072 µM.

Q: What about the inhibition at 0.1 µM (trachealis muscle tissue) of the same compound?
A: The inhibition at 0.1 µM was 37%.

Q: And the inhibition at 0.3 µM (trachealis muscle tissue)?
A: Its inhibition at 0.3 µM is 61%.

Q: And the inhibition at 2 µM (trachealis muscle tissue)?
A: Its inhibition at 2 µM is 86%.

Q: With `CCOC(=O)C1=C(C)NC2=C(C1c1ccccc1C(F)(F)F)S(=O)(=O)CCN(C(=O)OC(C)(C)C)C2` (stereo not shown) [2-CF3 / BOC / ethyl] as the compound, how does the inhibition at 0.1 µM (aorta tissue) read?
A: Its inhibition at 0.1 µM is 37%.

Q: What about the inhibition at 1 µM (aorta tissue) of the same compound?
A: Its inhibition at 1 µM is 47%.

Q: And the inhibition at 1 µM [1]?
A: Its inhibition at 1 µM is 7%.

Q: What about the inhibition at 0.3 µM (trachealis muscle tissue) of the same compound?
A: The inhibition at 0.3 µM was 24%.

Q: And the inhibition at 2 µM (trachealis muscle tissue)?
A: The inhibition at 2 µM was 50%.

Q: For `CCOC(=O)C1=C(C)NC2=C(C1c1ccccc1C(F)(F)F)S(=O)(=O)CCNC2` (stereo not shown) [2-CF3 / H / ethyl], which inhibition at 0.01 µM (aorta tissue) is on record?
A: The inhibition at 0.01 µM was 37%.

Q: What about the inhibition at 0.1 µM (aorta tissue) of the same compound?
A: The inhibition at 0.1 µM was 68%.

Q: And the inhibition at 1 µM (aorta tissue)?
A: Its inhibition at 1 µM is 83%.

Q: What about the IC50 [1] of the same compound?
A: Its IC50 is 0.36 µM.

Q: What about the inhibition at 0.1 µM (trachealis muscle tissue) of the same compound?
A: Its inhibition at 0.1 µM is 38%.

Q: What about the inhibition at 0.3 µM (trachealis muscle tissue) of the same compound?
A: Its inhibition at 0.3 µM is 35%.

Q: And the inhibition at 2 µM (trachealis muscle tissue)?
A: Its inhibition at 2 µM is 73%.

Q: What does the source list for `CCOC(=O)C1=C(C)NC2=C(C1c1c(F)cccc1Cl)S(=O)(=O)CCNC2` (stereo not shown) [2-Cl, 6-F / H / ethyl]?
A: inhibition at 0.01 µM (aorta tissue): 4.8%; inhibition at 1 µM (aorta tissue): 86%; IC50 [1]: 0.87 µM; inhibition at 0.3 µM (trachealis muscle tissue): 56%; inhibition at 2 µM (trachealis muscle tissue): 88%

Q: How did the inhibition at 0.1 µM (aorta tissue) turn out when `CCOC(=O)C1=C(C)NC2=C(C1c1cccc([N+](=O)[O-])c1)S(=O)(=O)CCNC2` (stereo not shown) [3-nitro / H / ethyl] was run?
A: Its inhibition at 0.1 µM is 88%.

Q: What about the inhibition at 1 µM (aorta tissue) of the same compound?
A: Its inhibition at 1 µM is 100%.

Q: What about the IC50 [1] of the same compound?
A: Its IC50 is 0.24 µM.

Q: What about the inhibition at 0.03 µM (trachealis muscle tissue) of the same compound?
A: The inhibition at 0.03 µM was 58%.

Q: And the inhibition at 2 µM (trachealis muscle tissue)?
A: Its inhibition at 2 µM is 93%.

Q: What does the source list for `CCOC(=O)C1=C(C)NC2=C(C1c1c(F)c(F)c(F)c(F)c1F)S(=O)(=O)CCN(C(=O)OC(C)(C)C)C2` (stereo not shown) [pentafluoro / BOC / ethyl]?
A: inhibition at 0.1 µM (aorta tissue): 0%; inhibition at 1 µM (aorta tissue): 37%; inhibition at 1 µM [1]: 24%; inhibition at 2 µM (trachealis muscle tissue): 7%

Q: How did the inhibition at 0.01 µM (aorta tissue) turn out when `CCOC(=O)C1=C(C)NC2=C(C1c1c(F)c(F)c(F)c(F)c1F)S(=O)(=O)CCNC2` (stereo not shown) [pentafluoro / H / ethyl, Ethyl 1,1-dioxo-2,3,4,5,6,9-hexahydro-7-methyl-9-(2,3,4,5,6-pentafluorophenyl)-pyrido[2,3-f][1,4]-thiazepine-8-carboxylate] was run?
A: The inhibition at 0.01 µM was 61%.

Q: And the inhibition at 0.1 µM (aorta tissue)?
A: The inhibition at 0.1 µM was 89%.

Q: And the inhibition at 1 µM (aorta tissue)?
A: Its inhibition at 1 µM is 95%.

Q: What about the IC50 [1] of the same compound?
A: Its IC50 is 0.09 µM.

Q: And the inhibition at 0.01 µM (trachealis muscle tissue)?
A: The inhibition at 0.01 µM was 13%.

Q: What about the inhibition at 0.1 µM (trachealis muscle tissue) of the same compound?
A: Its inhibition at 0.1 µM is 63%.

Q: And the inhibition at 2 µM (trachealis muscle tissue)?
A: The inhibition at 2 µM was 98%.

Q: Which inhibition at 0.01 µM (aorta tissue) does the source give for `CCOC(=O)C1=C(C)NC2=C(C1c1c(F)c(F)c(F)c(F)c1F)S(=O)(=O)CCN(C)C2` (stereo not shown) [pentafluoro / Me / ethyl, Ethyl 4,7-dimethyl-1,1-dioxo-2,3,4,5,6,9-hexahydro-9-(2,3,4,5,6-pentafluorophenyl)-pyrido[2,3-f][1,4]-thiazepine-8-carboxylate] here?
A: Its inhibition at 0.01 µM is 50%.

Q: And the inhibition at 1 µM (aorta tissue)?
A: Its inhibition at 1 µM is 97%.

Q: What about the IC50 [1] of the same compound?
A: Its IC50 is 0.053 µM.

Q: What about the inhibition at 0.01 µM (trachealis muscle tissue) of the same compound?
A: Its inhibition at 0.01 µM is 35%.

Q: What about the inhibition at 0.1 µM (trachealis muscle tissue) of the same compound?
A: Its inhibition at 0.1 µM is 73%.

Q: What about the inhibition at 1 µM (trachealis muscle tissue; 1.0 μM) of the same compound?
A: Its inhibition at 1 µM is 95%.
